As a reminder, the melting point is the temperature, or range, at which the solid turns liquid.

As for `COc1cc(OC)nc(N2CCN(Cc3ccc(C(C)(C)NC(C)=O)cc3)CC2)n1`, the melting point fell in the range of 199 to 202 °C.
With `CC(C)(O)c1cc2cc(OCC(=O)O)c(Cl)c(Cl)c2s1` the figure was 194 to 196 °C; with `COC(=O)c1ccc(COCn2cc(Cl)cnc2=O)cc1`, 172 °C; with `O=C(NCC(=O)N1CCN(C(=O)c2cc(C(F)(F)F)cc(C(F)(F)F)c2)[C@H](Cc2c[nH]c3ccccc23)C1)c1ccccc1`, 123 to 135 °C.
The same measure for `Cc1sc(C)c(CC#N)c1CC#N`: 124 to 126 °C.
With `CC(C)c1cnn2c(NCc3ccccc3)nc(Cl)cc12` the figure was 74 to 75 °C; with `NC(=O)N(O)CC=Cc1cccc(F)c1Sc1ccc(F)cc1`, 127 to 128 °C; with `O=C(O)c1ccc(=O)n(CCNC(=O)c2cccnc2)c1`, above 295 °C.
Molecule `Cc1csc2c(Cl)c(Cl)c(O)cc12` had a melting point of 137 to 139 °C.
With `Nc1c(F)c(N2C[C@@H](N)[C@@H](n3ccnn3)C2)c(F)c2c1c(=O)c(C(=O)O)cn2C1CC1` (relative stereo) the figure was 275 to 277 °C; with `NS(=O)(=O)c1ccc(-c2cnn(Cc3ccc(F)c(F)c3F)c(=O)c2-c2ccc(F)cc2)cc1`, 218 to 220 °C; with `CN1CC2CN(C(=O)N3c4ccccc4NC(=O)c4c3c(Cl)cn4C)CC2C1` (centres undefined), above 280 °C.
The same measure for `CN(C)c1ccc(CSC2=NC(C)(C)C(SCc3ccc(N(C)C)cc3)=N2)cc1`: 91 to 92 °C; for `CN(C)C(=NS(=O)(=O)c1ccc(Cl)cc1)N1CC(c2ccccc2)C(c2ccc(Cl)cc2)=N1` (centres undefined): 182 °C.
The same measure for `CCCCOc1ccc(Cl)cc1C(=O)NCc1ccc(CC(=O)O)cc1`: 172 °C; for `CCCCC(Cc1ccc(OCCNC(=O)c2ccc(-c3ccc(C(=O)OC)cc3)cc2)cc1)C(=O)OCC` (centres undefined): 93 to 95 °C.
The molecule `CCOCc1nc2c(N)nc3ccccc3c2n1NC(C)C` yielded a melting point of 162 to 164 °C.
With `O=C1c2c(-c3ccccc3)noc2CCC1CN1CCOCC1` (centres undefined) the figure was 140 to 141 °C; with `CON=C(c1noc(C)n1)c1ccccc1COc1ccc(Cl)cc1`, 125 to 126 °C.
The same measure for `Nc1cc(Cl)nc(Cl)c1[N+](=O)[O-]`: 136 to 138 °C; for `O=C(NC1CCN(CCOC(=O)c2ccccc2)CC1)c1ccccc1`: 139 to 140 °C.
`Nc1sc(-c2ccccc2)c(CN(C2CCCCC2)C2CCCCC2)c1C(=O)c1ccc(Cl)cc1`: the melting point fell in the range of 201 to 203 °C.
`CCc1ccc(Cc2cn(C3OC(COC(=O)c4ccccc4)C(F)C(OC(=O)c4ccccc4)C3OC(=O)c3ccccc3)c3cccc(Cl)c23)cc1` (centres undefined) displayed a melting point of 137 to 138 °C.
Take `Nc1ccccc1-c1n[nH]c(=S)n1N`: the melting point is 191 to 192 °C.
The same measure for `CC(C)C1(Cl)Cc2cc(OCC(=O)O)c(Cl)c(Cl)c2C1=O` (centres undefined): 158 to 159 °C.
The molecule `CC(=O)OCc1nc2sc(S(N)(=O)=O)cc2c(=O)n1-c1ccccc1Cl` gave a melting point of 192 to 194 °C.
In the case of `Cc1cc(Oc2ncc(C(F)(F)F)cc2Cl)n[nH]1`, the melting point was in the range of 93 to 95 °C.
The same measure for `Cc1oc(-c2ccccc2)nc1CCOc1ccc(C[C@H](NC(=O)C(F)=Cc2ccccc2)C(=O)O)cc1Br`: 243 to 245 °C.
With `CC(C)n1nc(CO)cc1OCc1ccc2ccccc2n1` the figure was 118 to 119 °C.
The same measure for `COc1ccc2[nH]c(SCc3nccc(N4CCCCC4)n3)nc2c1`: 145 to 147 °C.
As for `CNC(=O)c1c(N)n(C2CCCC2)c2nc(C#CC(C)(O)CO)ccc2c1=O` (centres undefined), the melting point was determined as 210 °C.
With `Cc1nn(-c2cccnc2)c2nc3cc(F)c(F)cc3c(Cl)c12` the figure was 192 to 194 °C; with `CCCC(=O)Nc1n[nH]c2c(N)cc(C)nc12`, 170 to 171 °C.
Take `CCOC(=O)C(Cl)N=Nc1ccccc1C(=O)c1ccccn1` (centres undefined): the melting point lay in the range of 123 to 125 °C.

(Values after a melting point compilation (Tetko et al.; mined from patent text by program, amines drawn as free bases though some values may be those of a salt).)
